Experimental data reported in patent US12480137B2, “Plants having increased tolerance to herbicides” (BASF SE, priority 2014, dated 2025).

Tests used:
Type in all cases: in vivo, Arabidopsis thaliana
[1] = test system: A. thaliana WT L. erecta; assay: Greenhouse phytotox, pre-emergent treatment
Procedure: (§1) Additionally, M2 or M3 Arabidopsis plants are tested for improved tolerance to cellulose biosynthesis-inhibiting herbicides in greenhouse studies (e. g. with the following cellulose biosynthesis-inhibiting herbicides: 6-cyclopentyl-N4-(2,3,4,5,6-pentafluorophenyl)-1,3,5-triazine-2,4-diamine; 6-(1-fluoro-1-methyl-ethyl)-N4-(2,3,4,5,6-pentafluorophenyl)-1,3,5-triazine-2,4-diamine; N4-(4-chloro-3,5,6-trifluoro-2-pyridyl)-6-(1-fluoro-1-methyl-ethyl)-1,3,5-triazine-2,4-diamine; 6-(2,6-difluorophenyl)-N4-(2,3,5,6-tetrafluorophenyl)-1,3,5-triazine-2,4-diamine; N4-(4-bromo-2,3,5,6-tetrafluoro-phenyl)-6-(1-fluoro-1-methyl-ethyl)-1,3,5-triazine-2,4-diamine.

[2] = test system: Cesa1_G1009D, fpx2-3 mutant line; assay: Greenhouse phytotox, pre-emergent treatment
Procedure: as §1

[3] = test system: Cesa1_G1013R, fpx2-1 mutant line; assay: Greenhouse phytotox, pre-emergent treatment
Procedure: as §1

[4] = test system: Cesa1_P1010L, fpx2-2 mutant line; assay: Greenhouse phytotox, pre-emergent treatment
Procedure: as §1

[5] = test system: Cesa3_S1037F, fpx1-2 mutant line; assay: Greenhouse phytotox, pre-emergent treatment
Procedure: as §1

[6] = test system: Cesa3_S1040L, fpx1-1 mutant line; assay: Greenhouse phytotox, pre-emergent treatment
Procedure: as §1

[7] = test system: Cesa3_S983F, fpx1-3 mutant line; assay: Greenhouse phytotox, pre-emergent treatment
Procedure: as §1

[8] = test system: A. thaliana WT L. erecta; assay: Greenhouse phytotox, post-emergent treatment 6 weeks after sowing
Procedure: as §1

[9] = test system: Cesa1_G1009D, fpx2-3 mutant line; assay: as above
Procedure: as §1

[10] = test system: Cesa1_G1013R, fpx2-1 mutant line; assay: as above
Procedure: as §1

[11] = test system: Cesa1_P1010L, fpx2-2 mutant line; assay: as above
Procedure: as §1

[12] = test system: Cesa3_S1037F, fpx1-2 mutant line; assay: as above
Procedure: as §1

[13] = test system: Cesa3_S1040L, fpx1-1 mutant line; assay: as above
Procedure: as §1

[14] = test system: Cesa3_S983F, fpx1-3 mutant line; assay: as above
Procedure: as §1

[15] = test system: transgenic Arabidopsis plants, construct AtCESA1 wt; assay: Growth inhibition of transgenic Arabidopsis in 48-well plates, tolerance factor from IC50; details: SEQ ID NO 1, growth inhibition seven to ten days after seeding
From the text: (§2) For transformation of Arabidopsis thaliana, wildtype or mutated cellulose synthase sequences based on one of the following sequences SEQ ID NO: 72, 73, 74, 75, 76, or 77, are cloned with standard cloning techniques as described in Sambrook et al. (Molecular cloning (2001) Cold Spring Harbor Laboratory Press) in a binary vector containing resistance marker gene cassette (AHAS) and mutated cellulose synthase sequence (marked as GOI) in between ubiquitin promoter (PcUbi) and nopaline synthase terminator (NOS) sequence. Binary plasmids are introduced to Agrobacterium tumefaciens for plant transformation. Arabidopsis thaliana are transformed with wildtype or mutated cellulose synthase sequences by floral dip method as decribed by McElver and Singh (WO 2008/124495). Transgenic Arabidopsis plants are subjected to TaqMan analysis for analysis of the number of integration loci.
(§3) Transgenic Arabidopsis thaliana plants are assayed for improved tolerance to azine herbicides like e. g. 6-cyclopentyl-N4-(2,3,4,5,6-pentafluorophenyl)-1,3,5-triazine-2,4-diamine in 48-well plates. Therefore, T2 seeds are surface sterilized by stirring for 5 min in ethanol+water (70+30 by volume), rinsing one time with ethanol+water (70+30 by volume) and two times with sterile, deionized water. The seeds are resuspended in 0.1% agar dissolved in water (w/v) Four to five seeds per well are plated on solid nutrient medium consisting of half-strength murashige skoog nutrient solution, pH 5.8 (Murashige and Skoog (1962) Physiologia Plantarum 15: 473-497). Compounds are dissolved in dimethylsulfoxid (DMSO) and added to the medium prior solidification (final DMSO concentration 0.1%). Multi well plates are incubated in a growth chamber at 22° C., 75% relative humidity and 110 μmol Phot*m^−2*s^−1 with 14:10 h light:dark photoperiod. Growth inhibition is evaluated seven to ten days after seeding in comparison to wild type plants. Tolerance factors are calculated based on IC50 values of growth inhibition of transformed versus non-transformed Arabidopsis plants.

[16] = test system: transgenic Arabidopsis plants, construct AtCESA1_G1013R; assay: as above; details: SEQ ID NO 1, substitution G1013R, growth inhibition seven to ten days after seeding
From the text: as §2, §3

[17] = test system: transgenic Arabidopsis plants, construct AtCESA3_S1037F; assay: as above; details: SEQ ID NO 3, substitution S1037F, growth inhibition seven to ten days after seeding
From the text: as §2, §3

[18] = test system: transgenic Arabidopsis plants, construct AtCESA3_S1040L; assay: as above; details: SEQ ID NO 3, substitution S1040L, growth inhibition seven to ten days after seeding
From the text: as §2, §3

[19] = test system: transgenic Arabidopsis plants, construct AtCESA3_wt; assay: as above; details: SEQ ID NO 3, growth inhibition seven to ten days after seeding
From the text: as §2, §3

Cc1cccc(-n2nc(C(N)=O)nc2-c2ccccc2)c1 [1-(m-tolyl)-5-phenyl-1,2,4-triazole-3-carboxamide, reference compound]
Phytotox value on a scale from 0-100 (100 is 100% damage) ([1]; 3.91 g ai/ha): 0 | Phytotox value on a scale from 0-100 (100 is 100% damage) ([1]; 15.63 g ai/ha): 63 | Phytotox value on a scale from 0-100 (100 is 100% damage) ([1]; 62.5 g ai/ha): 100 | Phytotox value on a scale from 0-100 (100 is 100% damage) ([1]; 250 g ai/ha): 100 | Phytotox value on a scale from 0-100 (100 is 100% damage) ([2]; 3.91 g ai/ha): 0 | Phytotox value on a scale from 0-100 (100 is 100% damage) ([2]; 15.63 g ai/ha): 18 | Phytotox value on a scale from 0-100 (100 is 100% damage) ([2]; 62.5 g ai/ha): 30 | Phytotox value on a scale from 0-100 (100 is 100% damage) ([2]; 250 g ai/ha): 45 | Phytotox value on a scale from 0-100 (100 is 100% damage) ([3]; 3.91 g ai/ha): 5 | Phytotox value on a scale from 0-100 (100 is 100% damage) ([3]; 15.63 g ai/ha): 15 | Phytotox value on a scale from 0-100 (100 is 100% damage) ([3]; 62.5 g ai/ha): 20 | Phytotox value on a scale from 0-100 (100 is 100% damage) ([3]; 250 g ai/ha): 15 | Phytotox value on a scale from 0-100 (100 is 100% damage) ([4]; 3.91 g ai/ha): 0 | Phytotox value on a scale from 0-100 (100 is 100% damage) ([4]; 15.63 g ai/ha): 20 | Phytotox value on a scale from 0-100 (100 is 100% damage) ([4]; 62.5 g ai/ha): 13 | Phytotox value on a scale from 0-100 (100 is 100% damage) ([4]; 250 g ai/ha): 35 | Phytotox value on a scale from 0-100 (100 is 100% damage) ([5]; 3.91 g ai/ha): 0 | Phytotox value on a scale from 0-100 (100 is 100% damage) ([5]; 15.63 g ai/ha): 30 | Phytotox value on a scale from 0-100 (100 is 100% damage) ([5]; 62.5 g ai/ha): 23 | Phytotox value on a scale from 0-100 (100 is 100% damage) ([5]; 250 g ai/ha): 68 | Phytotox value on a scale from 0-100 (100 is 100% damage) ([6]; 3.91 g ai/ha): 38 | Phytotox value on a scale from 0-100 (100 is 100% damage) ([6]; 15.63 g ai/ha): 30 | Phytotox value on a scale from 0-100 (100 is 100% damage) ([6]; 62.5 g ai/ha): 0 | Phytotox value on a scale from 0-100 (100 is 100% damage) ([6]; 250 g ai/ha): 25 | Phytotox value on a scale from 0-100 (100 is 100% damage) ([7]; 3.91 g ai/ha): 0 | Phytotox value on a scale from 0-100 (100 is 100% damage) ([7]; 15.63 g ai/ha): 8 | Phytotox value on a scale from 0-100 (100 is 100% damage) ([7]; 62.5 g ai/ha): 5 | Phytotox value on a scale from 0-100 (100 is 100% damage) ([7]; 250 g ai/ha): 30 | Phytotox value on a scale from 0-100 (100 is 100% damage) ([8]; 62.5 g ai/ha): 78 | Phytotox value on a scale from 0-100 (100 is 100% damage) ([8]; 125 g ai/ha): 83 | Phytotox value on a scale from 0-100 (100 is 100% damage) ([8]; 250 g ai/ha): 95 | Phytotox value on a scale from 0-100 (100 is 100% damage) ([9]; 62.5 g ai/ha): 23 | Phytotox value on a scale from 0-100 (100 is 100% damage) ([9]; 125 g ai/ha): 33 | Phytotox value on a scale from 0-100 (100 is 100% damage) ([9]; 250 g ai/ha): 45 | Phytotox value on a scale from 0-100 (100 is 100% damage) ([10]; 62.5 g ai/ha): 23 | Phytotox value on a scale from 0-100 (100 is 100% damage) ([10]; 125 g ai/ha): 33 | Phytotox value on a scale from 0-100 (100 is 100% damage) ([10]; 250 g ai/ha): 40 | Phytotox value on a scale from 0-100 (100 is 100% damage) ([11]; 62.5 g ai/ha): 15 | Phytotox value on a scale from 0-100 (100 is 100% damage) ([11]; 125 g ai/ha): 15 | Phytotox value on a scale from 0-100 (100 is 100% damage) ([11]; 250 g ai/ha): 48 | Phytotox value on a scale from 0-100 (100 is 100% damage) ([12]; 62.5 g ai/ha): 30 | Phytotox value on a scale from 0-100 (100 is 100% damage) ([12]; 125 g ai/ha): 50 | Phytotox value on a scale from 0-100 (100 is 100% damage) ([12]; 250 g ai/ha): 68 | Phytotox value on a scale from 0-100 (100 is 100% damage) ([13]; 62.5 g ai/ha): 0 | Phytotox value on a scale from 0-100 (100 is 100% damage) ([13]; 125 g ai/ha): 23 | Phytotox value on a scale from 0-100 (100 is 100% damage) ([13]; 250 g ai/ha): 55 | Phytotox value on a scale from 0-100 (100 is 100% damage) ([14]; 62.5 g ai/ha): 28 | Phytotox value on a scale from 0-100 (100 is 100% damage) ([14]; 125 g ai/ha): 23 | Phytotox value on a scale from 0-100 (100 is 100% damage) ([14]; 250 g ai/ha): 53 | Relative tolerance rate (non-transgenic = 1.0) [15]: 3 | Relative tolerance rate (non-transgenic = 1.0) [16]: 33 | Relative tolerance rate (non-transgenic = 1.0) [17]: 1333 | Relative tolerance rate (non-transgenic = 1.0) [18]: 2 | Relative tolerance rate (non-transgenic = 1.0) [19]: 4
